Reference: US20240279205A1, “NOVEL BENZIMIDAZOLE DERIVATIVE” (Carna Biosciences, Inc., priority 2020, published 2024)
Where a name gives a salt, the structure may show the parent alone.

Columns and labels:
[1] = system: STING activation (IFN-β production in THP-1 cells); test: Human IFN-β production inhibition test by cGAMP stimulation in THP-1 cells; type: cell-based; parameters: IFN-β bioinhibitory activity: scale not given here; conditions: 2'3'-cGAMP transfection, 18 hours, IFN-β ELISA; for IC50: Homo sapiens, read-out: IFN-β bioinhibitory activity
Procedure: Human IFN-β production inhibition test by cGAMP stimulation
The inhibitory activity of test compounds against STING activation was evaluated by measuring the amount of IFN-β produced when human monocytic cell line THP-1 cells were stimulated with the endogenous ligand cGAMP.
After seeding THP-1 cells (ATCC) in a 96-well plate, PMA (Santa Cruz Biotechnology) adjusted to a concentration of 100 nM after addition was added, and incubated at 37° C. in a 5% CO2 incubator. It was cultured overnight (RPMI1640 medium containing 10% FBS, 50 U/mL penicillin/50 μg/mL streptomycin). A test compound solution adjusted to a final concentration of 0.001 to 1 μM was added to each well of this plate and cultured for 1 hour in a CO2 incubator (DMSO final concentration 0.1%). 0.12 μg/well of 2′3′-cGAMP (Invivogen, #tlrl-nacga23) was introduced into the cells by transfection using Lipofectamine2000 (Invitrogen) and cultured in a CO incubator for an additional 18 hours. After collecting the culture supernatant from each well, the amount of human IFN-β produced in the culture supernatant was measured by ELISA using R&D human IFN-β Duoset (R&D Systems).
Assuming that the human IFN-β production amount of the test compound-free and cGAMP-added group is 100%, and the human IFN-β production amount of the test compound-free and cGAMP-free group is 0%, the IC50 value was determined by regression analysis of the inhibitory rate determined from the amount of human IFN-β production at each compound concentration and the concentration of the test compound (logarithm).

human STING (hSTING) = molecular target: T1, human STING (hSTING) (Homo sapiens, UniProt Q86WV6); test: Inhibition test of intracellular human STING (hSTING) pathway using SEAP reporter cells (HEK-Blue ISG), stimulation with Compound 3; type: cell-based; parameters: hSTING inhibitory activity: scale not given here; conditions: Compound 3 10 nM stimulation, 21 hours
T1 construct: host or cells: HEK-Blue ISG cells (HEK293-derived SEAP reporter line)
T1 sequence (Q86WV6 whole entry H232R): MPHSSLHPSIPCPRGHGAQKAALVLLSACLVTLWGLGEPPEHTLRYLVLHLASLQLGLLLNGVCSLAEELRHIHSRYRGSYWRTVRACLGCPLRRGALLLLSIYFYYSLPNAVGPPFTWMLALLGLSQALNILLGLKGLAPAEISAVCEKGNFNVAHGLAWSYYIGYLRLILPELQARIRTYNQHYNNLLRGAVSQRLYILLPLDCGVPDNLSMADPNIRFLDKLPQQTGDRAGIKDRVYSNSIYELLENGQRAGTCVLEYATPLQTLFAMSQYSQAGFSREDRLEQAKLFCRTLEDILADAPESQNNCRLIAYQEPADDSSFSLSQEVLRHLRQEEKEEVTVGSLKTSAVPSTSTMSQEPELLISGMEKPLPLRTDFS
Summary of the method: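 IC50 derived by regressing inhibition rate against log compound concentration (0.1 to 10 μM final, added 1 h before agonist), with 0% and 100% set by wells without and with 10 nM Compound 3. SEAP colour reaction read after 21 h stimulation of HEK-Blue ISG reporter cells.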

SMILES | hSTING inhibitory activity (human STING (hSTING)) | IC50 [1] [nM] | IC50 (human STING (hSTING); read-out: hSTING inhibitory activity) [nM] | IFN-β bioinhibitory activity [1]
C=Cc1ccc2[nH]cc(Nc3nc4cc(Oc5ccccc5)ccc4[nH]3)c2n1 [Embodiment 101, 5-phenoxy-N-(5-vinyl-1H-pyrrolo [3,2-b]pyridin-3-yl)-1H-benzo [d]imidazol-2-amine] | * * * | – | – | * *
CC(C)n1c(Nc2c[nH]c3ccc(Cl)nc23)nc2ccc(Oc3ccccc3)cc21 [Embodiment 117, N-(5-Chloro-1H-pyrrolo[3,2-b]pyridin-3-yl)-1-isopropyl-6-phenoxy-1H-benzo[d]imidazol-2-amine] | * * * | 100 to 1000 | – | –
Clc1ccc2[nH]cc(Nc3nc4cc(Oc5ccccc5)ccc4[nH]3)c2n1 [Embodiment 35, N-(5-chloro-1H-pyrrolo[3,2-b]pyridin-3-yl)-5-phenoxy-1H-benzo[d]imidazol-2-amine] | * * * | 100 to 1000 | – | –
Clc1ccc2[nH]cc(Nc3nc4cc(C5CCOCC5)ccc4[nH]3)c2n1 [Embodiment 112, N-(5-chloro-1H-pyrrolo[3,2-b]pyridin-3-yl)-5-(tetrahydro-2H-pyran-4-yl)-1H-benzo[d]imidazole-2-amine] | * * | 100 to 1000 | – | –
C[Si](C)(C)C#Cc1ccc2[nH]c(Nc3c[nH]c4ccc(Br)nc34)nc2c1 [Embodiment 59, N-(5-bromo-1H-pyrrolo[3,2-b]pyridin-3-yl)-5-[(trimethylsilyl)ethynyl]-1H-benzo[d]imidazol-2-amine] | * * * | – | – | * *
CCO/C=C/c1ccc2[nH]c(Nc3c[nH]c4ccc(Cl)nc34)nc2c1 [Embodiment 114, (E)-N-(5-chloro-1H-pyrrolo[3,2-b]pyridin-3-yl)-5-(2-ethoxyvinyl)-1H-benzo[d]imidazol-2-amine] | * * * | ≥ 1000 | – | –
FC(F)(F)c1ccc2c(c1)nc(Nc1c[nH]c3ccc(Cl)nc13)n2C1CC1 [Embodiment 186, N-(5-Chloro-1H-pyrrolo[3,2-b]pyridin-3-yl)-1-cyclopropyl-5-(trifluoromethyl)-1H-benzo[d] imidazol-2-amine] | – | 100 to 1000 | 1000 to 10000 | –
FC(F)(F)c1ccc2c(c1)nc(Nc1c[nH]c3ccc(Cl)cc13)n2CC1CC1 [Embodiment 215, N-(5-Chloro-1H-indol-3-yl)-1-(cyclopropylmethyl)-5-(trifluoromethyl)-1H-benzo[d] imidazol-2-amine] | * * * | – | – | * *
CC(C)=Cc1ccc2[nH]c(Nc3c[nH]c4ccc(Cl)nc34)nc2c1 [Embodiment 128, N-(5-chloro-1H-pyrrolo[3,2-b]pyridin-3-yl)-5-(2-methylprop-1-en-1-yl)-1H-benzo[d]imidazole-2-amine] | * * | – | – | * * *
[2H]C([2H])([2H])n1c(Nc2c[nH]c3ccc(Cl)cc23)nc2cc(C(F)(F)F)ccc21 [Embodiment 221, N-(5-Chloro-1H-indol-3-yl)-1-(methyl-d3)-5-(trifluoromethyl)-1H-benzo[d]imidazol-2-mine] | * * * | – | – | * *
c1ccc(Oc2ccc3[nH]c(Nc4c[nH]c5c(-c6ccccc6)ccnc45)nc3c2)cc1 [Embodiment 54, 5-phenoxy-N-(7-phenyl-1H-pyrrolo[3,2-b]pyridin-3-yl)-1H-benzo[d]imidazol-2-amine] | * * | ≥ 1000 | – | –
CC(C)c1ccc2[nH]c(Nc3c[nH]c4ccc(Cl)nc34)nc2c1 [Embodiment 104, N-(5-Chloro-1H-pyrrolo[3,2-b]pyridin-3-yl)-5-isopropyl-1H-benzo[d]imidazol-2-amine] | * * | – | – | * *
Cn1c(Nc2c[nH]c3ccc(Cl)cc23)nc2cc(C(F)(F)F)ccc21 [Embodiment 56, N-(5-chloro-1H-indol-3-yl)-1-methyl-5-(trifluoromethyl)-1H-benzo[d]imidazol-2-amine] | * * * | – | – | * * *
Cn1c(Nc2c[nH]c3ncc(Cl)cc23)nc2ccc(Oc3ccccc3)cc21 [Embodiment 108, N-(5-Chloro-1H-pyrrolo[2,3-b]pyridin-3-yl)-1-methyl-6-phenoxy-1H-benzo[d]imidazol-2-amine] | * * | ≥ 1000 | – | –
Fc1cc(F)c2nc(Nc3c[nH]c4ccc(Cl)nc34)[nH]c2c1 [Embodiment 86, N-(5-Chloro-1H-pyrrolo[3,2-b]pyridin-3-yl)-4,6-difluoro-1H-benzo[d]imidazol-2-amine formate] | * * | ≥ 1000 | – | –
CCc1ccc2[nH]cc(Nc3nc4cc(Oc5ccccc5)ccc4[nH]3)c2n1 [Embodiment 103, N-(5-ethyl-1H-pyrrolo[3,2-b]pyridin-3-yl)-5-phenoxy-1H-benzo [d]imidazol-2-amine] | * * | 100 to 1000 | – | –
COc1ccc2[nH]cc(Nc3nc4cc(Oc5ccccc5)ccc4[nH]3)c2n1 [Embodiment 36, N-(5-methoxy-1H-pyrrolo[3,2-b]pyridin-3-yl)-5-phenoxy-1H-benzo[d]imidazol-2-amine] | * * | – | – | * *

Continued, in another order:

hSTING inhibitory activity (human STING (hSTING)) | IC50 [1] [nM] | IC50 (human STING (hSTING); read-out: hSTING inhibitory activity) [nM] | SMILES | IFN-β bioinhibitory activity [1]
* * | 100 to 1000 | – | FC(F)(F)c1ccc2c(c1)nc(Nc1c[nH]c3ccc(Cl)cc13)n2N1CCCC1 [Embodiment 247, N-(5-Chloro-1H-indol-3-yl)-1-(pyrrolidin-1-yl)-5-(trifluoromethyl)-1H-benzo[d]imidazol-2-amine] | –
* * * | – | – | Fc1cc(C(F)(F)F)cc2nc(Nc3c[nH]c4ccc(Cl)cc34)n(C3CC3)c12 [Embodiment 233, N-(5-Chloro-1H-indol-3-yl)-1-cyclopropyl-7-fluoro-5-(trifluoromethyl)-1H-benzo[d]imidazol-2-amine] | * *
* * * | – | – | Clc1ccc2[nH]c(Nc3c[nH]c4ccc(Br)cc34)nc2c1 [Example 4, N-(5-bromo-1H-indol-3-yl)-5-chloro-1H-benzo[d]imidazol-2-amine] | * *
* * | 100 to 1000 | – | CN(C)n1c(Nc2c[nH]c3ccc(Cl)cc23)nc2ccc(C(F)(F)F)cc21 [Embodiment 266, N2-(5-Chloro-1H-indol-3-yl)-N1, N1-dimethyl-6-(trifluoromethyl)-1H-benzo[d]imidazole-1,2-diamine] | –
* * | – | – | FC(F)(F)c1ccc2[nH]c(Nc3c[nH]c4ccc(Br)nc34)nc2c1 [Example 31, N-(5-bromo-1H-pyrrolo[3,2-b]pyridin-3-yl)-5-(trifluoromethyl)-1H-benzo[d]imidazol-2-amine] | * * *
* * * | – | – | Cn1c(Nc2c[nH]c3ccc(Cl)cc23)nc2cc(C(F)(F)F)cc(F)c21 [Embodiment 225, N-(5-Chloro-1H-indol-3-yl)-7-fluoro-1-methyl-5-(trifluoromethyl)-1H-benzo[d]imidazol-2-amine] | * *
* * * | – | – | Cn1c(Nc2c[nH]c3ccc(Cl)cc23)nc2cc(C(F)(F)F)c(F)cc21 [Embodiment 254, N-(5-Chloro-1H-indol-3-yl)-6-fluoro-1-methyl-5-(trifluoromethyl)-1H-benzo[d]imidazol-2-amine] | * *
* * * | – | – | CN(C)n1c(Nc2c[nH]c3ccc(Cl)cc23)nc2cc(OC(F)(F)F)ccc21 [Embodiment 258, N2-(5-Chloro-1H-indol-3-yl)-N1, N1-dimethyl-5-(trifluoromethoxy)-1H-benzo[d]imidazole-1,2-diamine] | * *
* * * | – | – | CCCn1c(Nc2c[nH]c3ccc(Cl)cc23)nc2cc(C(F)(F)F)cc(F)c21 [Embodiment 238, N-(5-Chloro-1H-indol-3-yl)-7-fluoro-1-propyl-5-(trifluoromethyl)-1H-benzo[d]imidazol-2-amine] | * *
* * * | – | – | Cc1ccc2[nH]cc(Nc3nc4cc(C(F)(F)F)cc(F)c4n3C)c2c1 [Embodiment 256, 7-fluoro-1-methyl-N-(5-methyl-1H-indol-3-yl)-5-(trifluoromethyl)-1H-benzo[d]imidazol-2-amine] | * *
* * * | – | – | CNn1c(Nc2c[nH]c3ccc(Cl)cc23)nc2cc(C(F)(F)F)ccc21.Cl [Embodiment 255, N2-(5-Chloro-1H-indol-3-yl)-N1-methyl-5-(trifluoromethyl)-1H-benzo[d]imidazole-1,2-diamine hydrochloride] | * *
